{"source": "patent US11820773B2", "about": "“Tricyclic compounds” (ALIGOS THERAPEUTICS, INC., priority 2020, dated 2023)"}
{"test_system": "HBV", "experiment": "HBV-DNA antiviral assay using HepG2.117 cells (intracellular HBV DNA by qPCR)", "type": "cell-based, genotype D HBV", "details": "Hepatitis B virus, 72 h, HBV DNA inhibition, 3 days incubation, 2% DMSO", "experimental": "The following assay procedure describes the HBV antiviral assay, using HepG2.117 cells, which carry a stably integrated genotype D HBV genome under the control of a Tet-off promoter, and intracellular HBV DNA quantification as endpoint. Cell viability is assessed in parallel by measuring the intracellular ATP content using CellTiter-Glo 2.0 (Promega).\nOn day 0, HepG2.117 cells (which are maintained in routine cell culture with doxycycline present in the medium at a final concentration of 1 μg/mL) were seeded in 96-well plates (white with clear bottom) at a density of 2.0×10^4 cells/well (0.1 mL/well) in medium without doxycycline to induce pgRNA transcription and subsequent formation of HBV particles. The cells were incubated at 37° C. and 5% CO2.\nOn day 1, medium was removed from each well, the test articles were diluted in culture medium without doxcycyline and 100 μL was added to cell culture wells (9 concentrations, 4-fold dilution). For each plate, 6 untreated (merely DMSO) wells were included. The final concentration of DMSO in the culture medium was 2%. Each plate was prepared in duplicate (one for HBV DNA extraction, one for CellTiter-Glo 2.0 measurement). The cells were incubated at 37° C. and 5% CO2 for 3 days.\nOn day 4, cell viability was assessed using CellTiter-Glo 2.0 and cell lysates were prepared for HBV DNA extraction and subsequent quantification by qPCR.\nHBV DNA Quantification by qPCR\nMedium was removed from each well and 100 μL of 0.33% NP-40 in H2O was added to each well. Plates were sealed, incubated at 4° C. for 5 mins, vortexed extensively and centrifuged briefly. Next, 35 μL of lysate was added to 65 μL QuickExtract DNA Extraction Solution (Epicentre) in a PCR plate for each well. PCR plate was incubated at 65° C. for 6 mins, 98° C. for 2 mins and finally cooled to 4° C. HBV DNA was then quantified by qPCR with HBV-specific primers and probes as specified in Table 1 using the Bio-Rad SSOAdvanced Universal Probes Supermix on a CFX96 machine (Bio-Rad). The PCR cycle program consisted of 95° C. for 3 mins, followed by 40 cycles at 95° C. for 10 sec and 60° C. for 30 sec.\nA DNA standard was prepared by dilution of an IDT gBlock corresponding to the amplicon with concentrations ranging from 10^2 to 10^8 copies/input (i.e. per 4 μL) and used to generate a standard curve by plotting Cq values vs. HBV DNA standard concentration. The quantity of HBV DNA in each sample was determined by interpolating from the standard curve.\nCell viability was calculated as follows: % Cell viability=(luminescence value of test sample)/(average luminescence value of 2% DMSO control)×100%. HBV DNA inhibition was calculated as follows: 100−(HBV DNA copy number of test sample)/(average HBV DNA copy number of 2% DMSO control)×100%. No normalization to entecavir was required due to the excellent dynamic window of this assay. The CC50, EC50 and EC90 values were determined by dose-response curves fitted by GraphPad Prism using “log (agonist) vs. response—Variable slope”.", "units": {"EC50": "nM"}}
{"molecule": "CC(C)Cc1cnn2c3c(c(=O)n(-c4ccc5c(c4)ncn5C)c12)C[C@@H](C)N(C(=O)c1ccc(Br)c(C(F)(F)F)c1)C3", "note": "(stereo in doubt) [Compound 86a, rac-(11R)-12-[4-bromo-3-(trifluoromethyl)benzoyl]-5-isobutyl-11-methyl-7-(1-methylbenzimidazol-5-yl)-2,3,7,12-tetrazatricyclo[7.4.0.0^2,6]trideca-1(9),3,5-trien-8-one]", "EC50": "< 50"}
{"molecule": "C#CCc1cnn2c3c(c(=O)n(-c4ccc(C(=O)NC)cc4)c12)C[C@@H](C)N(C(=O)c1ccc(Br)c(C(F)(F)F)c1)C3", "note": "(stereo in doubt) [Compound 78a, N-methyl-4-[rac-(11R)-12-[4-bromo-3-(trifluoromethyl)benzoyl]-11-methyl-8-oxo-5-prop-2-ynyl-2,3,7,12-tetrazatricyclo[7.4.0.0^2,6]trideca-1 (9),3,5-trien-7-yl]benzamide]", "EC50": "< 50"}
{"molecule": "Cc1nn[nH]c1-c1ccc(-n2c(=O)c3c(n4ncc(CC(C)C)c24)CN(C(=O)c2ccc(Br)c(Cl)c2)[C@H](C)C3)cc1", "note": "(stereo in doubt) [Compound 64a, rac-(11R)-12-(4-bromo-3-chloro-benzoyl)-5-isobutyl-11-methyl-7-[4-(4-methyl-1H-triazol-5-yl)phenyl]-2,3,7,12-tetrazatricyclo[7.4.0.0^2,6]trideca-1(9),3,5-trien-8-one]", "EC50": "< 50"}
{"molecule": "CC(C)Cc1cnn2c3c(c(=O)n(-c4ccc(-c5n[nH]c(=O)n5C)cc4)c12)C[C@H](C)N(C(=O)c1ccc(Br)c(C(F)(F)F)c1)C3", "note": "(stereo in doubt) [Compound 81b, rac-(11S)-12-[4-bromo-3-(trifluoromethyl)benzoyl]-5-isobutyl-11-methyl-7-[4-(4-methyl-5-oxo-1H-1,2,4-triazol-3-yl)phenyl]-2,3,7,12-tetrazatricyclo[7.4.0.0^2,6]trideca-1(9),3,5-trien-8-one]", "EC50": "50 to 500"}
{"molecule": "Cc1nnc(-c2ccc(-n3c(=O)c4c(n5ncc(Cc6ccccc6)c35)CN(C(=O)c3ccc(Br)c(C(F)(F)F)c3)CC4)cc2)n1C", "note": "[Compound 32, 5-benzyl-12-[4-bromo-3-(trifluoromethyl)benzoyl]-7-[4-(4,5-dimethyl-1,2,4-triazol-3-yl)phenyl]-2,3,7,12-tetrazatricyclo[7.4.0.0^2,6]trideca-1(9),3,5-trien-8-one]", "EC50": "< 50"}
{"molecule": "CC(C)Cc1cnn2c3c(c(=O)n(-c4ccc5c(c4)ncn5C)c12)C[C@H](C)N(C(=O)c1ccc(Br)c(C(F)(F)F)c1)C3", "note": "(stereo in doubt) [Compound 86b, rac-(11S)-12-[4-bromo-3-(trifluoromethyl)benzoyl]-5-isobutyl-11-methyl-7-(1-methylbenzimidazol-5-yl)-2,3,7,12-tetrazatricyclo[7.4.0.0^2,6]trideca-1(9),3,5-trien-8-one]", "EC50": "50 to 500"}
{"molecule": "C[C@H]1Cc2c(n3ncc(CC4CC4)c3n(-c3ccc(C(=O)N(C)COC(=O)CN)cc3)c2=O)CN1C(=O)c1ccc(Br)c(C(F)(F)F)c1", "note": "(racemic) [Compound 97, [methyl-[4-[rac-(11S)-12-[4-bromo-3-(trifluoromethyl)benzoyl]-5-(cyclopropylmethyl)-11-methyl-8-oxo-2,3,7,12-tetrazatricyclo[7.4.0.0^2,6]trideca-1(9),3,5-trien-7-yl]benzoyl]amino]methyl 2-aminoacetate]", "EC50": "> 5000"}
{"molecule": "CNc1nnc2cc(-n3c(=O)c4c(n5ncc(Cc6ccccc6)c35)CN(C(=O)c3ccc(Br)c(Cl)c3)CC4)ccn12", "note": "[Compound 23, 5-benzyl-12-(4-bromo-3-chloro-benzoyl)-7-[3-(methylamino)-[1,2,4]triazolo[4,3-a]pyridin-7-yl]-2,3,7,12-tetrazatricyclo[7.4.0.0^2,6]trideca-1(9),3,5-trien-8-one]", "EC50": "< 50"}
{"molecule": "Cc1nn[nH]c1-c1cc(-n2c(=O)c3c(n4ncc(Cc5ccccc5)c24)CN(C(=O)c2ccc(Br)c(C(F)(F)F)c2)[C@@H](C)C3)nn1C", "note": "(stereo in doubt) [Compound 83b, rac-(11S)-5-benzyl-12-[4-bromo-3-(trifluoromethyl)benzoyl]-11-methyl-7-[1-methyl-5-(4-methyl-1H-triazol-5-yl)pyrazol-3-yl]-2,3,7,12-tetrazatricyclo[7.4.0.0^2,6]trideca-1(9),3,5-trien-8-one]", "EC50": "50 to 500"}
{"molecule": "CCC[C@H]1Cc2c(n3ncc(Cc4ccccc4)c3n(-c3ccc4c(NC)n[nH]c4c3)c2=O)CN1C(=O)c1ccc(Br)c(C(F)(F)F)c1", "note": "(stereo in doubt) [Compound 88b, rac-(11S)-5-benzyl-12-[4-bromo-3-(trifluoromethyl)benzoyl]-7-[3-(methylamino)-1H-indazol-6-yl]-11-propyl-2,3,7,12-tetrazatricyclo[7.4.0.0^2,6]trideca-1(9),3,5-trien-8-one]", "EC50": "< 50"}
{"molecule": "Cc1cnn(-c2ccc(-n3c(=O)c4c(n5ncc(Cc6ccccc6)c35)CN(C(=O)c3ccc(Br)c(C(F)(F)F)c3)[C@H](C)C4)cc2)n1", "note": "(stereo in doubt) [Compound 79a, rac-(11R)-5-benzyl-12-[4-bromo-3-(trifluoromethyl)benzoyl]-11-methyl-7-[4-(4-methyltriazol-2-yl)phenyl]-2,3,7,12-tetrazatricyclo[7.4.0.0^2,6]trideca-1(9),3,5-trien-8-one]", "EC50": "< 50"}
{"molecule": "CNc1n[nH]c2cc(-n3c(=O)c4c(n5ncc(CC(C)C)c35)CN(C(=O)c3ccc(Br)c(Cl)c3)[C@@H](C)C4)ccc12", "note": "(stereo in doubt) [Compound 57b, rac-(11S)-12-(4-bromo-3-chloro-benzoyl)-5-isobutyl-11-methyl-7-[3-(methylamino)-1H-indazol-6-yl]-2,3,7,12-tetrazatricyclo[7.4.0.0^2,6]trideca-1(9),3,5-trien-8-one]", "EC50": "50 to 500"}
{"molecule": "CNC(=O)c1ccc(-n2c(=O)c3c(n4ncc(Cc5ccccc5)c24)CN(C(=O)c2ccc(Br)c(C(F)F)c2)CC3)cc1", "note": "[Compound 3, 4-[5-benzyl-12-[4-bromo-3-(difluoromethyl)benzoyl]-8-oxo-2,3,7,12-tetrazatricyclo[7.4.0.0^2,6]trideca-1(9),3,5-trien-7-yl]-N-methyl-benzamide]", "EC50": "< 50"}
{"molecule": "Cc1nnc(-c2ccc(-n3c(=O)c4c(n5ncc(CC(C)C)c35)CN(C(=O)c3ccc(Br)c(C(F)(F)F)c3)[C@@H](C)C4)cc2)[nH]1", "note": "(stereo in doubt) [Compound 59b, rac-(11S)-12-[4-bromo-3-(trifluoromethyl)benzoyl]-5-isobutyl-11-methyl-7-[4-(5-methyl-4H-1,2,4-triazol-3-yl)phenyl]-2,3,7,12-tetrazatricyclo[7.4.0.0^2,6]trideca-1(9),3,5-trien-8-one]", "EC50": "50 to 500"}
{"molecule": "CNC(=O)c1cc(-n2c(=O)c3c(n4ncc(CC(C)C)c24)CN(C(=O)c2ccc(Br)c(C(F)(F)F)c2)[C@@H](C)C3)nn1C", "note": "(stereo in doubt) [Compound 77b, N,2-dimethyl-5-[rac-(11S)-12-[4-bromo-3-(trifluoromethyl)benzoyl]-5-isobutyl-11-methyl-8-oxo-2,3,7,12-tetrazatricyclo[7.4.0.0^2,6]trideca-1(9),3,5-trien-7-yl]pyrazole-3-carboxamide]", "EC50": "< 50"}
{"molecule": "Cc1nnnn1-c1ccc(-n2c(=O)c3c(n4ncc(Cc5ccccc5)c24)CN(C(=O)c2ccc(Br)c(C(F)(F)F)c2)[C@@H](C)C3)cc1", "note": "(stereo in doubt) [Compound 46b, rac-(11S)-5-benzyl-12-[4-bromo-3-(trifluoromethyl)benzoyl]-11-methyl-7-[4-(5-methyltetrazol-1-yl)phenyl]-2,3,7,12-tetrazatricyclo[7.4.0.0^2,6]trideca-1(9),3,5-trien-8-one]", "EC50": "50 to 500"}
{"molecule": "CNC(=O)c1ccc(-n2c(=O)c3c(n4ncc(CC5CCOC5)c24)CN(C(=O)c2ccc(Br)c(Cl)c2)CC3)cc1", "note": "(centres unmarked) [Compound 17, 4-[12-(4-bromo-3-chloro-benzoyl)-8-oxo-5-(tetrahydrofuran-3-ylmethyl)-2,3,7,12-tetrazatricyclo[7.4.0.0^2,6]trideca-1(9),3,5-trien-7-yl]-N-methyl-benzamide]", "EC50": "< 50"}
